Experimental findings from PMC9475553, “SHF Acts as a Novel Tumor Suppressor in Glioblastoma Multiforme by Disrupting STAT3 Dimerization” (Advanced Science, 2022) are described below.

No end group written: not given here.

As a reminder, the Kd is the concentration at which binding is half-saturated.

For this assay, the target named is immobilized STAT3 (Homo sapiens, UniProt P40763). As to the kind of experiment: Static adsorption equilibrium assay, immobilized STAT3. The assay is classed as binding. To be noted: immobilized STAT3 85 nmol g^−1 wet gel; peptide 2-20 µM in PBS, stirred 12 h; free peptide by NanoDrop absorbance 240 nm; Langmuir isotherm; mean ± SD; read-out: equilibrium dissociation constant KD. From the text:
Considering that the SH2 domain predominantly represents the inhibition of SHF on STAT3 dimerization and activity, we speculated that this domain may be an optional target for GBM suppression. To this end, we analyzed the mechanical interaction of SHF and STAT3. The structures of human SHF (aa265‐421) and STAT3 (aa130‐715). both of which spanned their respective SH2 domain. were simulated by Swiss‐Model server (https://swissmodel.expasy.org/). To simulate the interaction of SHF and STAT3, Discovery studio 2018 was employed to complete protein‐protein docking using ZDOCK as an initial stage. A rigid body molecular docking algorithm utilizing a fast Fourier transform (FFT) algorithm was used to further improve performance for searching in translational space. All the available structures from PDB were used to calculate the docking poses and the structures obtained were subjected to energy minimization filtration using the smart minimize algorithm (Max steps 200, RMS gradient 0.01). The highest resulting ZDock score was used as the appropriate conformational pose. […] Since these two spots are located closely to one another, the sequence spanning amino acids 388–421 was used as a peptide design master. To obtain a peptide with high internalization efficiency and a strong half‐life, we introduced a palmitic acid at the N‐terminus of the master sequence and amidated the C‐terminus. The designed peptide was named C16. A scrambled peptide containing a scrambled sequence targeting Spot1 was named SC and served as a negative control peptide. […] The static adsorption equilibrium experiment of immobilized STAT3 peptide was used to detect the binding rate of the synthesized peptide with STAT3 (Figure 7C). The concentration of immobilized STAT3 used was 85 nmol g^−1 wet gel. […] Thus, C16 acted as a powerful inhibitor of STAT3 dimerization and associated activity. Next, we determined the implication of C16 in tumor inhibition. […] A concentration of 25 uM was determined to be adequate for use in the subsequent experiments. […] Further, the impact of C16 on tumor propagation was examined in an intracranial xenograft model. U87 cells expressing luciferase were implanted into mouse brains. The mice were injected intraperitoneally (i.p.) with C16 or SC once every 2 days from the third day after cell transplantation. […] To investigate the effect of C16 on cell proliferation, EdU was injected 24 h prior to sacrifice.
Figure 7 Peptide derived from the STAT3‐binding sites of SHF is an effective GBM suppressive strategy. A) Binding model between SHF and STAT3 using ZDOCK server. […] B) IF staining determined the cell penetrability and nuclear‐localization of C16. U251 cells were incubated with C16 or SC for 2 h and performed IF staining using the indicated antibodies. Bars, 10 µm. C) The statical analysis of adsorption equilibrium assay detecting the binding of C16 and SC with recombinant STAT3. D) Pull‐down assay indicating C16 binds STAT3. GST‐STAT3 was incubated with C16 or SC for 2 h, and the pull‐down assay was performed using Anti‐His magnetic beads. E) IP assay showing the effect of C16 on STAT3 dimerization. 293T cells transfected with indicated vectors were incubated with C16 for 2 h. The relative quantification of STAT3 dimerization was listed. F) IP assay detecting the effect of C16 on the interaction of STAT3 and DNMT1. […] The relative quantification of STAT3/DNMT1 interaction was listed. […] The relative quantification of STAT3/DNMT1 interaction was listed. […]

Chain of immobilized STAT3 (P40763 whole entry, the tested form may be a part): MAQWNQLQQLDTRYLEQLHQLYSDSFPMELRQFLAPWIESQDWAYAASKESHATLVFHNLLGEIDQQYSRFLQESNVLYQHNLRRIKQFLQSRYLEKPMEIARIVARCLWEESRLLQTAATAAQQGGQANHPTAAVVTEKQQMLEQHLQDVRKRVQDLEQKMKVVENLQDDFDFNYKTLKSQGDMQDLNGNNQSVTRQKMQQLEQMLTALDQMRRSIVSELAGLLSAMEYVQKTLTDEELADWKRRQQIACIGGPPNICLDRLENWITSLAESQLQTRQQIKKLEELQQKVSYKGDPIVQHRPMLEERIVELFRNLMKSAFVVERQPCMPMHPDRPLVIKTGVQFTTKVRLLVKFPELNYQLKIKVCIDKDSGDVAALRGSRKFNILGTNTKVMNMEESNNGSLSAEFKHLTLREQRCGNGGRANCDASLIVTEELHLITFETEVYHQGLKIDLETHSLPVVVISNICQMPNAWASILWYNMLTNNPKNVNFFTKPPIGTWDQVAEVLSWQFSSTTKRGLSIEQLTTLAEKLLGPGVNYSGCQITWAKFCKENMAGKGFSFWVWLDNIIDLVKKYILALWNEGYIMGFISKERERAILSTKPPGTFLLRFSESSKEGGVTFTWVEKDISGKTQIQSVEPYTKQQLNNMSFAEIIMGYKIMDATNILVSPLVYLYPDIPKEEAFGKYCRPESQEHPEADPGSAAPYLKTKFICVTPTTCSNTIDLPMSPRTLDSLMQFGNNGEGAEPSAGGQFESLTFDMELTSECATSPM

“PASSNCEIVPMYHIRKLPIKGAEHMSLLYPVAIR [SC, reference compound]”: the Kd turned out to be 4.08 ± 0.63 µM.
